Source: publication PMC10140581, “Development and evaluation of novel artemisinin-isatin hybrids with potential anti-leukemic cytotoxicity” (Frontiers in Oncology, 2023)

How the values were obtained:
[1] = tested on: CCRF-CEM human acute lymphoblastic leukemia cell line; test: MTT antiproliferative assay, CCRF-CEM; assay type: cell-based
Procedure: (§1) The antiproliferative activity and cytotoxicity of ester tethered ART-isatin hybrids 7a-u against human myeloid leukemia cell lines (K562 CM-0130 purchased from Procell and K562/ADR AW-CELLS-H0187 purchased from AnWei-sci), human acute lymphoblastic leukemia cell line (CCRF-CEM CL-0058 purchased from Procell) as well as cytotoxicity towards normal human peripheral blood mononuclear cells (PBMCs 230470, purchased from Mingzhoubio) were assessed by 3-(4,5-dimethylthiazol-2-yl)-2,5-diphenyltetrazolium bromide (MTT) assay.
(§2) Medium in wells was replaced after 24 h with fresh medium containing the tested compounds in DMSO (1% v/v) and incubated for 72 h. […] 3-(4,5-dimethyl-2-thiazolyl)-2,5-diphenyltetrazolium bromide (MTT) solution (10 µL) was added to each well, and the cultures were incubated for an additional 4 h at 37°C. A further 100 µL of […] was added and incubation continued overnight at 37°C. The absorbance at 540 nm was determined in each well with a 96-well plate reader. The growth of the treated cells was compared with that of untreated cells. Half maximum inhibitory concentration (IC50) is a measurement of the efficacy of a substance in inhibiting a specific biological or biochemical process. […] In this experiment, the dose-response curve constructed by Spss22.0 software was used to calculate the inhibitory effect of the hybrid (0 μM-100 μM) on the activity of leukemia cell lines. Each experiment was performed independently in triplicate with three tests in each, and results were reported as mean inhibitory concentration IC50.

[2] = tested on: K562 human myeloid leukemia cell line; test: MTT antiproliferative assay, K562; assay type: cell-based
Procedure: as §1, §2

[3] = tested on: K562/ADR human myeloid leukemia cell line; test: MTT antiproliferative assay, K562/ADR; assay type: cell-based
Procedure: as §1, with “assay. The antiproliferative activity was expressed by half maximal inhibitory concentration (IC50) values, which were presented in Table 2 .” for “assay.”
as §2

[4] = MTT cytotoxicity assay, normal PBMCs; assay type: cell-based, human; conditions: normal peripheral blood mononuclear cells (PBMCs); MTT assay, normal human PBMCs
Procedure: as §1

[5] = tested on: normal human peripheral blood mononuclear cells (PBMCs); test: MTT cytotoxicity assay, normal PBMCs; assay type: cell-based; conditions: PBMCs vs CCRF-CEM
Procedure: as §1

| IC50 [1] | IC50 [2] | IC50 [3] | Structure (SMILES) | IC50 [4] | SI, Selectivity index, IC50(PBMCs)/IC50(CCRF-CEM) [5] |
| --- | --- | --- | --- | --- | --- |
| 29.4 µM | > 100 µM | > 100 µM | CON=C1C(=O)N(CC(=O)OC2O[C@@H]3O[C@@]4(C)CC[C@H]5[C@H](C)CC[C@@H]([C@H]2C)[C@@]35OO4)c2ccc(F)cc21 (stereo partly drawn) [hybrid 7c, (3R,5aS,6R,8aS,9R,12R,12aR)-3,6,9-trimethyldecahydro-12H-3,12-epoxy[1,2]dioxepino[4,3-i]isochromen-10-yl 2-(5-fluoro-3-(methoxyimino)-2-oxoindolin-1-yl)acetate] | > 100 µM | – |
| > 100 µM | > 100 µM | > 100 µM | CCON=C1C(=O)N(CCCC(=O)OC2O[C@@H]3O[C@@]4(C)CC[C@H]5[C@H](C)CC[C@@H]([C@H]2C)[C@@]35OO4)c2ccccc21 (stereo partly drawn) [hybrid 7n, (3R,5aS,6R,8aS,9R,12R,12aR)-3,6,9-trimethyldecahydro-12H-3,12-epoxy[1,2]dioxepino[4,3-i]isochromen-10-yl 4-(3-(ethoxyimino)-2-oxoindolin-1-yl)butanoate] | – | – |
| 1.31 µM | > 100 µM | 16.2 µM | CON=C1C(=O)N(CCC(=O)OC2O[C@@H]3O[C@@]4(C)CC[C@H]5[C@H](C)CC[C@@H]([C@H]2C)[C@@]35OO4)c2ccc(F)cc21 (stereo partly drawn) [hybrid 7h, (3R,5aS,6R,8aS,9R,12R,12aR)-3,6,9-trimethyldecahydro-12H-3,12-epoxy[1,2]dioxepino[4,3-i]isochromen-10-yl 3-(5-fluoro-3-(methoxyimino)-2-oxoindolin-1-yl)propanoate] | > 100 µM | >76.33 |
| 3.83 µM | 33.6 µM | 49.8 µM | CON=C1C(=O)N(CC(=O)OC2O[C@@H]3O[C@@]4(C)CC[C@H]5[C@H](C)CC[C@@H]([C@H]2C)[C@@]35OO4)c2ccccc21 (stereo partly drawn) [hybrid 7a, (3R,5aS,6R,8aS,9R,12R,12aR)-3,6,9-trimethyldecahydro-12H-3,12-epoxy[1,2]dioxepino[4,3-i]isochromen-10-yl 2-(3-(methoxyimino)-2-oxoindolin-1-yl)acetate] | > 100 µM | >26.10 |
| > 100 µM | > 100 µM | > 100 µM | C[C@@H]1CC[C@H]2[C@@H](C)C(OC(=O)CCN3C(=O)C(=NOCc4ccccc4)c4ccccc43)O[C@@H]3O[C@@]4(C)CC[C@@H]1[C@]32OO4 (stereo partly drawn) [hybrid 7g, (3R,5aS,6R,8aS,9R,12R,12aR)-3,6,9-trimethyldecahydro-12H-3,12-epoxy[1,2]dioxepino[4,3-i]isochromen-10-yl 3-(3-[(benzyloxy)imino)-2-oxoindolin-1-yl]propanoate] | – | – |
| 12.7 µM | 16 µM | > 100 µM | CCON=C1C(=O)N(CCCC(=O)OC2O[C@@H]3O[C@@]4(C)CC[C@H]5[C@H](C)CC[C@@H]([C@H]2C)[C@@]35OO4)c2ccc(F)cc21 (stereo partly drawn) [hybrid 7q, (3R,5aS,6R,8aS,9R,12R,12aR)-3,6,9-trimethyldecahydro-12H-3,12-epoxy[1,2]dioxepino[4,3-i]isochromen-10-yl 4-(3-(ethoxyimino)-5-fluoro-2-oxoindolin-1-yl)butanoate] | > 100 µM | >7.85 |
| 15.2 µM | 3.78 µM | 22.7 µM | CON=C1C(=O)N(CCC(=O)OC2O[C@@H]3O[C@@]4(C)CC[C@H]5[C@H](C)CC[C@@H]([C@H]2C)[C@@]35OO4)c2ccccc21 (stereo partly drawn) [hybrid 7e, (3R,5aS,6R,8aS,9R,12R,12aR)-3,6,9-trimethyldecahydro-12H-3,12-epoxy[1,2]dioxepino[4,3-i]isochromen-10-yl 3-(3-(methoxyimino)-2-oxoindolin-1-yl)propanoate] | > 100 µM | >6.59 |
| > 100 µM | > 100 µM | 3.83 µM | C[C@@H]1CC[C@H]2[C@@H](C)C(OC(=O)CCN3C(=O)C(=NOCc4ccccc4)c4cc(F)ccc43)O[C@@H]3O[C@@]4(C)CC[C@@H]1[C@]32OO4 (stereo partly drawn) [hybrid 7j, (3R,5aS,6R,8aS,9R,12R,12aR)-3,6,9-trimethyldecahydro-12H-3,12-epoxy[1,2]dioxepino[4,3-i]isochromen-10-yl 3-(3-[(benzyloxy)imino)-5-fluoro-2-oxoindolin-1-yl]propanoate] | – | – |
| > 100 µM | > 100 µM | > 100 µM | C[C@@H]1CC[C@H]2[C@@H](C)C(=O)O[C@@H]3O[C@@]4(C)CC[C@@H]1[C@]32OO4 [ART, Artemisinin] | – | – |
| 9.16 µM | 5.7 µM | > 100 µM | CCON=C1C(=O)N(CCC(=O)OC2O[C@@H]3O[C@@]4(C)CC[C@H]5[C@H](C)CC[C@@H]([C@H]2C)[C@@]35OO4)c2ccccc21 (stereo partly drawn) [hybrid 7f, (3R,5aS,6R,8aS,9R,12R,12aR)-3,6,9-trimethyldecahydro-12H-3,12-epoxy[1,2]dioxepino[4,3-i]isochromen-10-yl 3-(3-(ethoxyimino)-2-oxoindolin-1-yl)propanoate] | > 100 µM | >10.91 |
| > 100 µM | 15.9 µM | > 100 µM | CCON=C1C(=O)N(CCC(=O)OC2O[C@@H]3O[C@@]4(C)CC[C@H]5[C@H](C)CC[C@@H]([C@H]2C)[C@@]35OO4)c2ccc(F)cc21 (stereo partly drawn) [hybrid 7i, (3R,5aS,6R,8aS,9R,12R,12aR)-3,6,9-trimethyldecahydro-12H-3,12-epoxy[1,2]dioxepino[4,3-i]isochromen-10-yl 3-(3-(ethoxyimino)-5-fluoro-2-oxoindolin-1-yl)propanoate] | – | – |
| 2.78 µM | > 100 µM | > 100 µM | CON=C1C(=O)N(CCCC(=O)OC2O[C@@H]3O[C@@]4(C)CC[C@H]5[C@H](C)CC[C@@H]([C@H]2C)[C@@]35OO4)c2ccccc21 (stereo partly drawn) [hybrid 7m, (3R,5aS,6R,8aS,9R,12R,12aR)-3,6,9-trimethyldecahydro-12H-3,12-epoxy[1,2]dioxepino[4,3-i]isochromen-10-yl 4-(3-(methoxyimino)-2-oxoindolin-1-yl)butanoate] | > 100 µM | >35.97 |
| 18.6 µM | 49.8 µM | > 100 µM | CON=C1C(=O)N(CCCC(=O)OC2O[C@@H]3O[C@@]4(C)CC[C@H]5[C@H](C)CC[C@@H]([C@H]2C)[C@@]35OO4)c2ccc(F)cc21 (stereo partly drawn) [hybrid 7p, (3R,5aS,6R,8aS,9R,12R,12aR)-3,6,9-trimethyldecahydro-12H-3,12-epoxy[1,2]dioxepino[4,3-i]isochromen-10-yl 4-(3-(methoxyimino)-5-fluoro-2-oxoindolin-1-yl)butanoate] | > 100 µM | >5.36 |
| 9.21 µM | 6.32 µM | > 100 µM | C[C@@H]1CC[C@H]2[C@@H](C)C(OC(=O)CCCN3C(=O)C(=NOCc4ccccc4)c4cc(F)ccc43)O[C@@H]3O[C@@]4(C)CC[C@@H]1[C@]32OO4 (stereo partly drawn) [hybrid 7r, (3R,5aS,6R,8aS,9R,12R,12aR)-3,6,9-trimethyldecahydro-12H-3,12-epoxy[1,2]dioxepino[4,3-i]isochromen-10-yl 4-(3-[(benzyloxy)imino)-5-fluoro-2-oxoindolin-1-yl]butanoate] | > 100 µM | >10.85 |
| 0.01 µM | 4.89 µM | > 100 µM | COc1cccc2c1C(=O)c1c(O)c3c(c(O)c1C2=O)C[C@@](O)(C(=O)CO)C[C@@H]3O[C@H]1C[C@H](N)[C@H](O)[C@H](C)O1 [Adriamycin, reference compound] | 46.9 µM | 4690 |
| – | – | 2.18 µM | O=C(CCCCCCC(=O)Nc1ccccc1)NO [Vorinostat, reference compound] | – | – |
| > 100 µM | > 100 µM | > 100 µM | C[C@@H]1CC[C@H]2[C@@H](C)C(OC(=O)CN3C(=O)C(=NOCc4ccccc4)c4ccccc43)O[C@@H]3O[C@@]4(C)CC[C@@H]1[C@]32OO4 (stereo partly drawn) [hybrid 7b, (3R,5aS,6R,8aS,9R,12R,12aR)-3,6,9-trimethyldecahydro-12H-3,12-epoxy[1,2]dioxepino[4,3-i]isochromen-10-yl 2-(3-[(benzyloxy)imino)-2-oxoindolin-1-yl]acetate] | – | – |
| > 100 µM | > 100 µM | > 100 µM | C[C@@H]1CC[C@H]2[C@@H](C)C(OC(=O)CCCN3C(=O)C(=NOCc4ccccc4)c4ccccc43)O[C@@H]3O[C@@]4(C)CC[C@@H]1[C@]32OO4 (stereo partly drawn) [hybrid 7o, (3R,5aS,6R,8aS,9R,12R,12aR)-3,6,9-trimethyldecahydro-12H-3,12-epoxy[1,2]dioxepino[4,3-i]isochromen-10-yl 4-(3-[(benzyloxy)imino)-2-oxoindolin-1-yl]butanoate] | – | – |
